Source: ChEMBL document CHEMBL1201862, “PubChem BioAssay data set” (2004)
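Results reflect a 48-hour exposure of cells in 96-well plates to compound at five concentrations. The concentration for 50% growth inhibition is given as GI50.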 The source made the active and inactive calls. Cut-off read from the data, not from the text of the source: active = GI50 up to about 1.1 µM and inactive = higher.

Assays:
Experiment in all cases: NCI tumour cell line growth inhibition, 48 h
COLO 205 = tested on: COLO 205
DU-145 = tested on: DU-145
HCT-116 = tested on: HCT-116
HOP-62 = tested on: HOP-62
HOP-92 = tested on: HOP-92
K562 = tested on: K562
KM12 = tested on: KM12
LOX IMVI = tested on: LOX IMVI
MDA-MB-435 = tested on: MDA-MB-435
NCI-H226 = tested on: NCI-H226
NCI-H460 = tested on: NCI-H460
NCI-H522 = tested on: NCI-H522
NCI/ADR-RES = tested on: NCI/ADR-RES
OVCAR-3 = tested on: OVCAR-3
OVCAR-4 = tested on: OVCAR-4
PC-3 = tested on: PC-3
SF-539 = tested on: SF-539
SK-MEL-2 = tested on: SK-MEL-2
SNB-19 = tested on: SNB-19
SR = tested on: SR

Measured: GI50

C=C1CCCC(C)(C)[C@H]1C/C=C1\CCOC1=O
inactive: COLO 205 19.3 µM | DU-145 13.2 µM | HCT-116 12.6 µM | HOP-62 17.6 µM | HOP-92 12.1 µM | K562 11.9 µM | KM12 17.9 µM | LOX IMVI 11.5 µM | MDA-MB-435 10.3 µM | NCI-H226 9.89 µM | NCI-H460 11.8 µM | NCI-H522 18 µM | NCI/ADR-RES 10.5 µM | OVCAR-3 15 µM | OVCAR-4 11 µM | PC-3 16.9 µM | SF-539 17.2 µM | SK-MEL-2 63.7 µM | SNB-19 16.8 µM | SR 12.4 µM

CC1=NN(c2nc(N)nc(-c3ccccc3S(N)(=O)=O)n2)C(C)(C)C1
inactive: DU-145 7.38 µM | HCT-116 10.2 µM | HOP-62 13 µM | HOP-92 > 100 µM | K562 35.2 µM | KM12 29.8 µM | LOX IMVI 10.3 µM | MDA-MB-435 37.8 µM | NCI-H226 9.2 µM | NCI-H460 5.07 µM | NCI-H522 24.3 µM | NCI/ADR-RES 9.33 µM | OVCAR-3 16.3 µM | OVCAR-4 13.2 µM | PC-3 16.7 µM | SF-539 27.4 µM | SK-MEL-2 9.2 µM | SR 5.85 µM

O=[N+]([O-])c1ccc(NC(=S)Nc2ccccn2)cc1
inactive: COLO 205 18.5 µM | DU-145 7.5 µM | HCT-116 11.9 µM | HOP-62 17.3 µM | HOP-92 72.4 µM | K562 > 69.2 µM | KM12 10.3 µM | LOX IMVI 16.4 µM | MDA-MB-435 20.8 µM | NCI-H226 22.7 µM | NCI-H460 23.3 µM | NCI-H522 31.8 µM | NCI/ADR-RES 33.4 µM | OVCAR-3 18.6 µM | OVCAR-4 37.5 µM | PC-3 40.6 µM | SF-539 8.63 µM | SK-MEL-2 > 53.1 µM | SNB-19 57.3 µM | SR 5.28 µM

Cc1c2ccncc2c(C)c2c1sc1ccccc12
inactive: COLO 205 12.3 µM | DU-145 13.3 µM | HCT-116 4.49 µM | HOP-62 7.38 µM | HOP-92 12 µM | K562 6.5 µM | KM12 12.1 µM | LOX IMVI 6.18 µM | MDA-MB-435 15 µM | NCI-H226 8.13 µM | NCI-H460 2.31 µM | NCI-H522 5.41 µM | NCI/ADR-RES 7.08 µM | OVCAR-3 14.6 µM | OVCAR-4 14.3 µM | PC-3 11.1 µM | SF-539 6.73 µM | SK-MEL-2 21 µM | SNB-19 9.4 µM | SR 2.19 µM

Oc1ccc(Cc2nccc3cc(O)c(O)cc23)cc1O
inactive: COLO 205 21.6 µM | DU-145 66.5 µM | HCT-116 17.7 µM | HOP-62 47.4 µM | HOP-92 90.2 µM | K562 26.8 µM | KM12 67.3 µM | LOX IMVI 33.5 µM | MDA-MB-435 51.3 µM | NCI-H226 46.2 µM | NCI-H460 29.6 µM | NCI-H522 30.4 µM | NCI/ADR-RES > 100 µM | OVCAR-3 90.8 µM | OVCAR-4 41.6 µM | PC-3 52.6 µM | SF-539 40.4 µM | SK-MEL-2 49.7 µM | SNB-19 55.2 µM | SR 19.6 µM

CC(=O)O[C@H]1C[C@H]2[C@@H]([C@H](OC(C)=O)C[C@@H]3CC4(CC[C@@]32C)OOC2(CCCCC2)OO4)[C@@H]2CC[C@H]([C@H](C)CCC(=O)O)[C@@]12C
inactive: COLO 205 3.91 µM | DU-145 10.4 µM | HCT-116 5.81 µM | HOP-62 2.45 µM | HOP-92 1.98 µM | K562 5.57 µM | KM12 3.56 µM | LOX IMVI 3.48 µM | MDA-MB-435 5.75 µM | NCI-H226 7.29 µM | NCI-H460 4.43 µM | NCI-H522 3.24 µM | NCI/ADR-RES 4.88 µM | OVCAR-3 13.9 µM | OVCAR-4 2.55 µM | PC-3 7.24 µM | SF-539 7.85 µM | SK-MEL-2 13.1 µM | SNB-19 6.71 µM | SR 2.44 µM

Nc1ncnc2c1ncn2C1CC(O)C(CO)O1 (stereo not drawn)
inactive: COLO 205 > 100 µM | DU-145 > 100 µM | HCT-116 > 100 µM | HOP-62 > 100 µM | HOP-92 > 100 µM | K562 > 100 µM | KM12 62.7 µM | LOX IMVI > 100 µM | MDA-MB-435 > 100 µM | NCI-H226 > 100 µM | NCI-H460 > 100 µM | NCI-H522 > 100 µM | NCI/ADR-RES > 100 µM | OVCAR-3 > 100 µM | OVCAR-4 > 100 µM | PC-3 > 100 µM | SF-539 > 100 µM | SK-MEL-2 > 100 µM | SNB-19 > 100 µM | SR > 100 µM
